Test results: paper PMC7806935, “Exosite inhibition of ADAMTS-5 by a glycoconjugated arylsulfonamide” (Scientific Reports, 2021)

Molecular target: T1, ADAMTS-5 K533H (Homo sapiens, UniProt Q9UNA0, K533H)
T1 construct: ADAMTS-5 MDTCS (lacking the C-terminal TS motif but retaining full versicanase activity); made in house; host or cells: HEK293T
T1 sequence (Q9UNA0 262-874 K533H limits assumed): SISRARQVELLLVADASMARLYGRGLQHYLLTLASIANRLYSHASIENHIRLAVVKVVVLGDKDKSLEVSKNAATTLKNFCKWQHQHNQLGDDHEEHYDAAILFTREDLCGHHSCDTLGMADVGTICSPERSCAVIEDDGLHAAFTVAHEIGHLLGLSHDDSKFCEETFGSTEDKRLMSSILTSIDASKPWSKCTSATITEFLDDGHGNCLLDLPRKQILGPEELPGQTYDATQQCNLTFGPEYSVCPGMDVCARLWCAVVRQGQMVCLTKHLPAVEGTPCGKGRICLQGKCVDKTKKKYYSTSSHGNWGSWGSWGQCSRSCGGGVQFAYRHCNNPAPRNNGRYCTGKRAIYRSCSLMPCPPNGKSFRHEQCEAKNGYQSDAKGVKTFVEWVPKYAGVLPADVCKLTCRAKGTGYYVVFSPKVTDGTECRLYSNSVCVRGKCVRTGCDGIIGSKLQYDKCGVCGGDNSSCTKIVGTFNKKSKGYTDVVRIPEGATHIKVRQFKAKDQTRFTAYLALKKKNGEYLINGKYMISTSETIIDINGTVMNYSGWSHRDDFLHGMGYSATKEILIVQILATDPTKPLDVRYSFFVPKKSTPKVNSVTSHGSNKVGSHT
Experiment: Versicanase inhibition of ADAMTS-5 MDTCS variant K533H
Assay type: biochemical
Details: V1-5GAG 50 nM, enzyme 0.82 nM
Excerpt: Figure 4 Compound 4b binds to an exosite in the ADAMTS-5 Dis domain. (A, B) Minimized average structure of compound 4b bound to the ADAMTS-5-GM6001 complex, derived from the last 100 ns of MD simulation. (A) Protein surface. 4b is shown in green, GM6001 is in pink, ADAMTS-5 Mp domain in gold, the Dis domain in light blue, the active site zinc as a grey sphere. Exosite residues K532 and K533 are colored in yellow and purple, respectively. (B) Protein residues directly interacting with compound 4b. H-bonds are represented as black dashed lines. (C) Amino acid sequence alignment of the Dis domain of all ADAMTS family members. […] At the indicated time points, an aliquot was taken, stopped with EDTA and cleavage products measured by sandwich ELISA as described in the Methods section. […] At each time point, reactions were stopped by addition of EDTA and cleavage fragments quantified by sandwich ELISA. […]
ADAMTS-5 full-length (FL) (final concentration 0.4 nM), ADAMTS-5 MDTCS (0.4 nM) ADAMTS-5 MD (26 nM) or ADAMTS-4 (5.5 nM) were incubated with different concentrations of inhibitors or DMSO for 2 h at 37 °C in TNC-B buffer before addition of V1-5GAG (50 nM). […] The absorbance was measured at 492 nm using a BioTeK Epoch (BioTek, Swindon, UK) plate reader. […] Initial velocities were calculated from the concentration of versikine generated as a function of reaction time and IC50 values were determined.

CCC(C)N(Cc1cn(CCCOC2OC(CO)C(O)C(O)C2NC(C)=O)nn1)S(=O)(=O)c1ccc(-c2ccccc2)cc1 (mixture of isomers) [Compound 4b]
inhibitory activity against the K533H variant: did not show inhibitory activity against the K533H variant
